These are literature values, as cited in patent US20030083520A1, “Process for preparing bicyclic amino acid” (Pfizer Inc., priority 2001, published 2003).

The test system of this data set is α2δ subunit derived from porcine brain tissue. Particulars: [3H]gabapentin radioligand.
On to `NC[C@@]1(CC(=O)O)C[C@H]2CC[C@H]2C1` [(1α,3β,5α)(3-Aminomethyl-bicyclo[3.2.0]hept-3-yl)-acetic acid], for which the α2δ binding affinity is 0.332 µM.
Take `NCC1(CC(=O)O)C[C@H]2CC[C@@H]2C1` (racemic) [(+/−)-(1α,5β)(3-Aminomethyl-bicyclo[3.2.0]hept-3-yl)-acetic acid]: the α2δ binding affinity was 2.86 µM.
As for `NC[C@]1(CC(=O)O)C[C@H]2CC[C@H]2C1` [(1α,3α,5α)(3-aminomethyl-bicyclo[3.2.0]hept-3-yl)-acetic acid], the α2δ binding affinity was 0.038 µM.
